Read-outs that look alike come from different tables or passages of the source.

Holding throughout (format): cell-based
Test [1] relates to L1210 cell line (mouse leukemia). Kind of test: Cytotoxic activity, L1210 cell line. Here is the method: (§1) The O-amino phenol derivatives bearing the N—O prodrug linkages and the various N-acyl substituents were assayed for cytotoxic activity alongside the parent drugs CBI-TMI (2) (Boger, D. L.; Yun, W. J. Am. Chem. Soc. 1994, 116, 7996) and mitomycin C (Boger, D. L.; et al. Bioorg. Med. Chem. Lett. 1991, 1, 115; Boger, D. L.; et al. Bioorg. Med. Chem. 1995, 3, 1429) as well as the two control standards 9 and 10 incapable of free phenol release. Three cell lines were examined including a standard L1210 cell line (mouse leukemia) as well as the mitomycin-sensitive (H460, expresses high levels of DT-Diaphorase) and resistant (H596, lacks DT-Diaphorase) non small cell lung cancer (NSCLC) cell lines, with results shown in the Table below.

The test system of test [2] is H596 (mitomycin-resistant, lacks DT-Diaphorase) non small cell lung cancer (NSCLC) cell line. The test is described as follows: Cytotoxic activity, H596 cell line. How it is done:
as §1

The subject of test [3] is H460 (mitomycin-sensitive, expresses high levels of DT-Diaphorase) non small cell lung cancer (NSCLC) cell line. The test is described as follows: Cytotoxic activity, H460 cell line. How it is done: as §1
Where [4] appears, read: unnatural enantiomer series, CBI-TMI derivatives, read-out: IC50 (nM) L1210.
[5] abbreviates: unnatural enantiomer series, CBI-TMI derivatives, read-out: IC50 (nM) H596.
[6] abbreviates: unnatural enantiomer series, CBI-TMI derivatives, read-out: IC50 (nM) H460.

Regarding `CO[C@@]12[C@H](COC(N)=O)C3=C(C(=O)C(C)=C(N)C3=O)N1C[C@@H]1N[C@@H]12` [mitomycin C, reference compound], the IC50 in test [1] (natural enantiomer series, CBI-TMI derivatives, read-out: IC50 (nM) L1210) was 40 nM; in test [1] (natural enantiomer series, CBI-indole2 derivatives, read-out: IC50 (nM) L1210), 40 nM; in test [1] (text range over L1210 and H460, read-out: IC50) it was 20 to 40 nM; in test [1] (setting [4]), 40 nM; in test [1] (unnatural enantiomer series, CBI-indole2 derivatives, read-out: IC50 (nM) L1210), 40 nM; in test [2] (mitomycin-resistant H596 cell line, read-out: IC50) it was 5000 nM. For the same molecule, the IC50 in test [2] (natural enantiomer series, CBI-TMI derivatives, read-out: IC50 (nM) H596) is 5000 nM; in test [2] (natural enantiomer series, CBI-indole2 derivatives, read-out: IC50 (nM) H596), 5000 nM; in test [2] (setting [5]), 5000 nM; in test [2] (unnatural enantiomer series, CBI-indole2 derivatives, read-out: IC50 (nM) H596), 5000 nM; in test [3] (natural enantiomer series, CBI-TMI derivatives, read-out: IC50 (nM) H460), 20 nM; in test [3] (natural enantiomer series, CBI-indole2 derivatives, read-out: IC50 (nM) H460) it was 20 nM. For the same molecule, the IC50 in test [3] (setting [6]) stood at 20 nM; in test [3] (unnatural enantiomer series, CBI-indole2 derivatives, read-out: IC50 (nM) H460), 20 nM.

As to `COc1cc2cc(C(=O)N3CC(CCl)c4c3cc(ON3C(=O)c5ccccc5C3=O)c3ccccc43)[nH]c2c(OC)c1OC` (stereo not drawn) [Compound 7], the IC50 amounted to 60 nM in test [1] (setting [4]), 6000 nM in test [2] (setting [5]) and 600 nM in test [3] (setting [6]).

For the molecule `COc1cc2cc(C(=O)N3C[C@@H](CCl)c4c3cc(O)c3ccccc43)[nH]c2c(OC)c1OC` [Compound 2, seco-CBI-TMI, reference compound], the IC50 in test [1] (Mus musculus, L1210, read-out: IC50 (nM) L1210, natural enantiomer series, CBI-TMI derivatives) was 0.04 nM; in test [1] (setting [4]) it was 5 nM; in test [2] (Homo sapiens, NCI-H596, read-out: IC50 (nM) H596), 5 nM; in test [2] (setting [5]), 300 nM; in test [3] (Homo sapiens, NCI-H460, read-out: IC50 (nM) H460), 0.5 nM; in test [3] (setting [6]), 50 nM. In addition, the “fold lower sensitivity of H596 than H460” value in test [2] (H596 versus H460) is 10 fold.

Usually IC50 stands for the midpoint of a concentration-inhibition curve.

The values are drawn from patent publication US8377981B2, “CBI derivatives subject to reductive activation” (The Scripps Research Institute, priority 2007, dated 2013).
